Measured values as given in patent publication US20050165068A1, “Compounds, in particularly of urea derivatives or esters of haloacetamidobenzoic acid and use thereof for the treatment of parasitic diseases” (priority 2002, published 2005).
Converted amounts (≈) assume the structure as drawn. Where two headings read alike, the source gives them in different places.

Experiments:
[1] = system: promastigote phase of Leishmania; conditions: 96 hours of contact, MTT marker; values of FIG. 1 not given
mouse microphages = conditions: times less on mouse microphages than on the parasite
Method: (§3) A tetrazolium salt (MTT) has been used as marker. In the case of L. mexicana, the molecules were evaluated relative to the intracellular amastigote stage (macrophages of Balb/c), the stage encountered in patients.

L. major = assay: in vivo anti-Leishmania activity, cutaneous model (L. major in Balb/c mice); conditions: MF 29 10 mg/kg intra-peritoneal once per day for 10 days, Glucantime subcutaneous, same scheme
Method: (§1) In promastigotes of L. major (2×106) or of L. infantum (10^7) in the stationary phase are inoculated respectively by the subcutaneous route in the rear right paw or by intravenous route in the caudal vein. […] Meglumine antimoniate (Glucantime-Speca™ Rhone-Poulenc, Paris, France) containing 85 mg of pentavalent antimony per ml is administered by subcutaneous route according to the same therapeutic scheme. The control group receives the solvent of MF 29 and of the saline solution at 0.9% by intra-peritoneal route.
(§2) For the cutaneous model, the efficacy of the treatment is evaluated by measuring the edema at the infected paw with the help of an electronic sliding foot (ref. 56371; Polylabo; Strasburg, France), and reported relative to the thickness of the counter-lateral paw. The mice are sacrificed […] after infection. A fragment of derma, of the spleen, of the liver and of the polyptic ganglion draining the lesion are set aside to determine the parasitic load in situ. As to the model of visceral leishmaniosis, the same protocol is carried out on the spleen and the liver. The parasitic load is expressed by the log10 of the number of parasites per gram of tissue.

L. infantum = assay: in vivo anti-Leishmania activity, visceral model (L. infantum); design: species or system mice; conditions: L. infantum intravenous, MF 29 10 mg/kg intra-peritoneal once per day for 10 days, Glucantime subcutaneous
Method: as §1, §2

tubuline of beef brain = system: tubuline of beef brain
Method: The anti-microtubular activity of MF 29 is also compared to that of MF 191 and to that of the vinblastine on the assembly of the tubulines of beef brain.
Experiments carried out to measure the capacity of in vitro polymerization of the tubuline were carried out with the help of a spectrophotometer provided with a circulating bath system at 37° C. and an automatic well loader permitting simultaneous measurement of several tests. The optical density which increases with polymerization of the assembly of the tubulines of the brain according to Lebanski et al., 1973, that is induced with the promoter MAP2 is measured at 345 nm every thirty seconds.

[2] = system: Trypanosoma cruzi Peruvian strain
Method: The in vivo anti-Trypanosoma activity of MF 29 has also been studied. Mice were infected with Trypanosoma cruzi Peruvian strain by intravenous route. Four days post-infection, the mice are treated with MF 29 by intra-peritoneal route once per day in the amount of 10 mg/Kg for 10 days. The control group receives the solvent. The effectiveness of the treatment is evaluated by measuring parasitemia and followed by mortality.

Plasmodium falciparum = system: Plasmodium falciparum
Excerpt: MF 29 has been evaluated in a test of inhibition of the proliferation of Plasmodium falciparum (mortal species) in an intra-erythrocytic model by measuring the incorporation of hypoxanthine.

[3] = system: MRC5 line (normal tissue of fetal lung); conditions: times less for MRC5 line than on the parasite
Method: as §3

[4] = system: promastigotes of L. mexicana; conditions: treatment for one hour at 5 μg/ml, sweeping electron microscope
[5] = system: L. mexicana intracellular amastigote stage; assay: activity on the intracellular amastigote stage of L. mexicana in macrophages of Balb/c; conditions: times greater than GLUCANTIME
Method: as §3

Molecule: CCOC(=O)c1ccc(NC(=O)CCl)cc1 [GR 37, 4-chloroacetamido ethyl benzoate]
- in vitro anti-Leishmania activity (CI50 of Table 1 / FIG. 1, described in words) [1]: extraordinary activity
- cytotoxicity on mouse macrophages relative to the parasite (mouse microphages): 1000 times

Molecule: CCOC(=O)c1ccccc1NC(=O)CCl [GR 38]
- in vitro anti-Leishmania activity (CI50 of Table 1 / FIG. 1, described in words) [1]: similar

Molecule: CCOC(=O)c1cccc(NC(=O)CCl)c1 [MF 29, 3-chloroacetamido ethyl benzoate]
- reduction of the hepatic parasitic load (L. major): 96%
- reduction of the polyptic ganglion parasitic load (L. major): 59%
- reduction of the spleen parasitic load (L. major): 97%
- reduction of the parasitic load in the liver (L. infantum): 25%
- reduction of the parasitic load in the spleen (L. infantum): 56%
- inhibition of polymerization of tubuline of beef brain (tubuline of beef brain; 37° C., MAP2 promoter, FIG. 4C): weak inhibitor
- inhibition of polymerization of tubuline of beef brain at doubled concentration (tubuline of beef brain; doubled concentration of the drug, FIG. 4D): significant inhibition
- mortality ([2]; 10 mg/Kg intra-peritoneal once per day for 10 days, FIG. 5): retardation in the curve of mortality
- mortality ([2]; 20 mg/kg, preliminary results): greater reduction of mortality
- reduction of the parasitic load ([2]; 8th day, versus control group, 10 mg/Kg intra-peritoneal): 70%
- parasitemia (load) ([2]; 8th day, 10 mg/Kg intra-peritoneal once per day for 10 days from four days post-infection): 200 trypomastigotes per 50 fields
- parasitemia versus control group ([2]; 10th day, 10 mg/Kg intra-peritoneal): equivalent for the two groups
- CI50 (Plasmodium falciparum; chloroquinine-sensitive strain (FCB1-Columbia)): 0.1 µg/mL (≈ 0.414 µM)
- CI50 (Plasmodium falciparum; strain (Nigerian strain) resistant to chloroquinine): 0.1 µg/mL (≈ 0.414 µM)
- in vitro anti-Leishmania activity (CI50 of Table 1 / FIG. 1, described in words) [1]: high activity
- cytotoxicity for the MRC5 line relative to that obtained on the parasite [3]: 400 times
- effect on the flagella [4]: do not seem to be disturbed
- morphological changes of the cellular body [4]: multiple pores
- activity in the amastigote form relative to GLUCANTIME [5]: 300 times

Molecule: meglumine antimoniate [Glucantime, reference compound]
- reduction of the polyptic ganglion parasitic load (L. major): 44%
- reduction of the parasitic load in the liver (L. infantum): 30%
- reduction of the parasitic load in the spleen (L. infantum): 66%
